Experimental data published in patent US20260207621A1 (Vividion Therapeutics, Inc., priority 2022, published 2026).

Legend:
KEAP1 C151 = biological target: T1, KEAP1 C151 (Homo sapiens, UniProt Q14145); assay: Nrf2 TMT measurement: in vitro TE50 for KEAP1 C151 (IA-DTB competition, targeted TMT mass spectrometry) in MDA-MB-468 cell lysate; assay type: binding; conditions: in vitro target engagement of KEAP1 C151, targeted TMT, read-out: KEAP1_C151 TE50
T1 construct: treating 500 μg of cell lysate generated from MDA-MB-468 breast cancer cells with DMSO or compound; endogenous in cells; host or cells: MDA-MB-468 breast cancer cell lysate
In short: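 MDA-MB-468 lysate (500 μg) treated with compound for 1 h at room temperature, then 200 μM IA-DTB for 1 h. Labeled peptides streptavidin-enriched after trypsin digest, TMT-labeled and quantified by targeted MS3 on the KEAP1 C151 peptide. IC50 from dose-response curve fitting.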

Nrf2 = Nrf2 antagonism assay: ARE luciferase reporter in KYSE-70 cells; assay type: cell-based; conditions: positive Imax corresponds to Nrf2 antagonism; for Emax: Homo sapiens, KYSE-70, KYSE-70 cells, read-out: KYSE70 Cellular ARE Luciferase Imax (%); for KYSE70 Cellular ARE Luciferase Imax (%): KYSE-70 cells
In short: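 KYSE-70 esophageal squamous carcinoma cells carrying Nrf2 W24C (constitutively Nrf2-high) with an ARE-driven luciferase reporter. Loss of luciferase signal reflects Nrf2 antagonism via KEAP1 C151 engagement. IC50 and Imax come from dose-response curves; positive Imax means antagonism.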

T1 sequence (Q14145 whole entry): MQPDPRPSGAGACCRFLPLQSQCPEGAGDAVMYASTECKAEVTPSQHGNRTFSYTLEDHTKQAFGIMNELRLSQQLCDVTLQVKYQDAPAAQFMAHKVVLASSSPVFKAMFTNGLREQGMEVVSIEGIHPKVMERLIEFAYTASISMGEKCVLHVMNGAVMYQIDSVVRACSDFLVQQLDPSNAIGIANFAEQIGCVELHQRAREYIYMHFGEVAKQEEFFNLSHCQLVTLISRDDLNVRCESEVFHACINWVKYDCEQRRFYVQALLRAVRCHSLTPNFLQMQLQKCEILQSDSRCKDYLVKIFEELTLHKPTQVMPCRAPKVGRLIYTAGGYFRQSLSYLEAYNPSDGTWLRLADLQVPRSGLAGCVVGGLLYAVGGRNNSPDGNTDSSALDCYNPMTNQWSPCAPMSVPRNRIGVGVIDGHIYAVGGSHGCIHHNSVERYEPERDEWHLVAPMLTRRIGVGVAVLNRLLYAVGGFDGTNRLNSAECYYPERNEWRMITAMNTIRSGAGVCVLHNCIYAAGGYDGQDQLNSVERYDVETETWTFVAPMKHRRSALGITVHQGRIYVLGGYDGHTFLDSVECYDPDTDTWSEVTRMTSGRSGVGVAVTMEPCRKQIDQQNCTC

Row | IC50 (KEAP1 C151) [nM] | Compound | Emax (Nrf2) [%] | KYSE70 Cellular ARE Luciferase Imax (%) (Nrf2)
1 | 63 | C=CC(=O)N1CCS(=O)(=O)CC1c1cc(Cl)cc(-c2nnn(C)n2)c1 (single isomer, unassigned) [Compound 32, 1-(3-(3-chloro-5-(2-methyl-2H-tetrazol-5-yl)phenyl)-1,1-dioxidothiomorpholino)prop-2-en-1-one] | 52 | –
2 | 410 | C=CC(=O)N1CCOCC1c1cc(Cl)cc(-c2ccccc2)c1 (racemic) [Compound 1, 1-(3-(5-chloro-[1,1′-biphenyl]-3-yl)morpholino)prop-2-en-1-one] | 56 | –
3 | 45 | C=CC(=O)N1CCOC[C@H]1c1cc(Cl)cc(-c2cc(C)ccn2)c1 (single isomer, unassigned) [Compound 104] | 91 | –
4 | 2890 | C=CC(=O)N1CC2(CC2)OCC1(C)c1cc(Cl)cc(-c2cc(N)ncn2)c1 (single isomer, unassigned) [Compound 167, 1-(6-(3-(6-aminopyrimidin-4-yl)-5-chlorophenyl)-6-methyl-4-oxa-7-azaspiro[2.5]octan-7-yl)prop-2-en-1-one] | 87 | –
5 | 20 | C=CC(=O)N1CCOC[C@H]1c1cc(Cl)cc(-c2nccc(N)n2)c1 (single isomer, unassigned) [Compound 96] | 94 | –
6 | 320 | C=CC(=O)N1CCOC[C@H]1c1cc(Cl)cc(C2CNC(=O)CO2)c1 (single isomer, unassigned) [Compound 231] | – | 55
7 | 13 | C=CC(=O)N1CCN(S(C)(=O)=O)C[C@H]1c1cc(Cl)cc(-c2ncnc(N)n2)c1 (single isomer, unassigned) [Compound 123] | 73 | –
8 | 14 | C=CC(=O)N1CCOC[C@H]1c1cc(Cl)cc(-c2nccc(OC)n2)c1 (single isomer, unassigned) [Compound 88] | 85 | –
9 | 24 | C=CC(=O)N1CC2(CC2)OCC1c1cc(Cl)cc(-c2ccc(F)c(C(N)=O)c2)c1 (single isomer, unassigned) [Compound 76, 3′-(7-acryloyl-4-oxa-7-azaspiro[2.5]octan-6-yl)-5′-chloro-4-fluoro-[1,1′-biphenyl]-3-carboxamide] | 90 | –
10 | 32 | C=CC(=O)N1CC2(CC2)OCC1c1cc(Cl)nc(-c2cc(N)ncn2)c1 (single isomer, unassigned) [Compound 175, 1-(6-(2-(6-aminopyrimidin-4-yl)-6-chloropyridin-4-yl)-4-oxa-7-azaspiro[2.5]octan-7-yl)prop-2-en-1-one] | – | 92
11 | 22 | C=CC(=O)N1CCOCC1c1cc(Cl)cc(-c2cnc3cccnc3c2)c1 (single isomer, unassigned) [Compound 37, 1-(3-(3-chloro-5-(1,5-naphthyridin-3-yl)phenyl)morpholino)prop-2-en-1-one] | 85 | –
12 | 105 | C=CC(=O)N1CC(C)(C)OC[C@H]1c1cc(Cl)cc(-c2ncc(N)cn2)c1 (single isomer, unassigned) [Compound 156] | 94 | –
13 | 18 | C=CC(=O)N1CCN(C(C)=O)C[C@H]1c1cc(Cl)cc(-c2ccc(F)c(C(N)=O)c2)c1 (single isomer, unassigned) [Compound 79] | 85 | –
14 | 3.9 | C=CC(=O)N1CCOC[C@H]1c1cc(Cl)cc(-c2ccnc(N3CCCC3=O)c2)c1 (single isomer, unassigned) [Compound 12] | 68 | –
15 | 36 | C=CC(=O)N1CCOCC1c1cc(Cl)cc(-c2cc(C(N)=O)n3ccnc3c2)c1 (single isomer, unassigned) [Compound 85, 7-(3-(4-acryloylmorpholin-3-yl)-5-chlorophenyl)imidazo[1,2-a]pyridine-5-carboxamide] | 89 | –
16 | 15 | C=CC(=O)N1[C@H](c2cc(Cl)cc(-c3ccnc(N)n3)c2)COC[C@H]1C(F)F (single isomer, unassigned) [Compound 290] | 93 | –
17 | 140 | C=CC(=O)N1CCOC[C@H]1c1cc(Cl)cc(C2CNC(=O)N(C)C2)c1 (single isomer, unassigned) [Compound 216] | 86 | –
18 | 30 | C=CC(=O)N1CCOC[C@H]1c1cc(Cl)cc(-c2nc(C)nc(N)n2)c1 (single isomer, unassigned) [Compound 178] | 93 | –

Row | IC50 (KEAP1 C151) [nM] | Compound | Emax (Nrf2) [%] | KYSE70 Cellular ARE Luciferase Imax (%) (Nrf2)
19 | 15 | C=CC(=O)N1CC(C)(C)OC[C@H]1c1cc(Cl)cc(-c2cc(N)ncn2)c1 (single isomer, unassigned) [Compound 149] | 95 | –
20 | 5.3 | C=CC(=O)N1CC2(CC2)S(=O)(=O)CC1c1cc(Cl)cc(-c2nccc(N)n2)c1 (single isomer, unassigned) [Compound 249, 1-(6-(3-(4-aminopyrimidin-2-yl)-5-chlorophenyl)-4,4-dioxido-4-thin-7-azaspiro[2.5]octan-7-yl)prop-2-en-1-one] | 89 | –
21 | 41 | C=CC(=O)N1[C@H](C)COC[C@H]1c1cc(Cl)nc(-c2ccn3ccnc3c2)c1 (single isomer, unassigned) [Compound 138] | 75 | –
22 | 45 | C=CC(=O)N1CCOC[C@H]1c1cc(Cl)cc(-c2cnc(F)c(N)n2)c1 (single isomer, unassigned) [Compound 279] | 92 | –
23 | 140 | C=CC(=O)N1C[C@@H](C)N(C(C)=O)C[C@@H]1c1cc(Cl)cc(-c2ncc(N)cn2)c1 (single isomer, unassigned) [Compound 237] | – | 50
24 | 18 | C=CC(=O)N1CCN(C(C)=O)C[C@H]1c1cc(Cl)cc(-c2ncc(N)cn2)c1 (single isomer, unassigned) [Compound 188] | 86 | –
25 | 27 | C=CC(=O)N1CCN(C(C)=O)C[C@H]1c1cc(Cl)cc(-c2nccc(N)n2)c1 (single isomer, unassigned) [Compound 183] | 87 | –
26 | 51.3 | C=CC(=O)N1CC(C)(C)OC[C@H]1c1cc(Cl)cc(-c2ccc(F)c(C(N)=O)c2)c1 (single isomer, unassigned) [Compound 61] | 89 | –
27 | 11 | C=CC(=O)N1[C@H](C)COC[C@H]1c1cc(Cl)nc(-c2ccnc(C(N)=O)c2)c1 (single isomer, unassigned) [Compound 145] | 90 | –
28 | 573 | C=CC(=O)N1CCS(=O)(=O)CC1c1cc(Cl)cc(-c2ccnc(C)n2)c1 (single isomer, unassigned) [Compound 50, 1-(3-(3-chloro-5-(2-methylpyrimidin-4-yl)phenyl)-1,1-dioxidothiomorpholino)prop-2-en-1-one] | 86 | –
29 | 11 | C=CC(=O)N1CCOC[C@H]1c1cc(Cl)cc(-c2ccnc(OC)c2)c1 (single isomer, unassigned) [Compound 91] | 82 | –
30 | 16 | C=CC(=O)N1CCC(F)(F)CC1c1cc(Cl)cc(-c2ncc(N)cn2)c1 (single isomer, unassigned) [Compound 247, 1-(2-(3-(5-aminopyrimidin-2-yl)-5-chlorophenyl)-4,4-difluoropiperidin-1-yl)prop-2-en-1-one] | 91 | –
31 | 89 | C=CC(=O)N1CC(C)(C)OC[C@H]1c1cc(Cl)cc(-c2ncc(F)cn2)c1 (single isomer, unassigned) [Compound 45] | 83 | –
32 | 97 | C=CC(=O)N1CCOC[C@H]1c1cc(Cl)cc(-c2c[nH]c(N)n2)c1 [Compound 193, (R)-1-(3-(3-(2-amino-1H-imidazol-4-yl)-5-chlorophenyl)morpholino)prop-2-en-1-one] | 91 | –
33 | 530 | C=CC(=O)N1CC2(CCCC2)OCC1(C)c1cc(Cl)cc(-c2ncc(F)cn2)c1 (single isomer, unassigned) [Compound 166, 1-(8-(3-chloro-5-(5-fluoropyrimidin-2-yl)phenyl)-8-methyl-6-oxa-9-azaspiro[4.5]decan-9-yl)prop-2-en-1-one] | 50 | –
34 | 36 | C=CC(=O)N1CCS(=O)(=O)CC1c1cc(Cl)cc(-c2ncccn2)c1 (single isomer, unassigned) [Compound 31, 1-(3-(3-chloro-5-(pyrimidin-2-yl)phenyl)-1,1-dioxidothiomorpholino)prop-2-en-1-one] | 66 | –
35 | 85 | C=CC(=O)N1CCOC[C@H]1c1cc(Cl)cc(-n2cc(N)cn2)c1 (single isomer, unassigned) [Compound 211] | 57 | –
